{"source": "ChEMBL document CHEMBL5543131", "about": "“Discovery of Highly Potent Solute Carrier 13 Member 5 (SLC13A5) Inhibitors for the Treatment of Hyperlipidemia” (J Med Chem, 2024)", "key": {"[1]": {"molecular_target": "Na(+)/citrate cotransporter (Homo sapiens, UniProt Q86YT5)", "sequence (Q86YT5 whole entry)": "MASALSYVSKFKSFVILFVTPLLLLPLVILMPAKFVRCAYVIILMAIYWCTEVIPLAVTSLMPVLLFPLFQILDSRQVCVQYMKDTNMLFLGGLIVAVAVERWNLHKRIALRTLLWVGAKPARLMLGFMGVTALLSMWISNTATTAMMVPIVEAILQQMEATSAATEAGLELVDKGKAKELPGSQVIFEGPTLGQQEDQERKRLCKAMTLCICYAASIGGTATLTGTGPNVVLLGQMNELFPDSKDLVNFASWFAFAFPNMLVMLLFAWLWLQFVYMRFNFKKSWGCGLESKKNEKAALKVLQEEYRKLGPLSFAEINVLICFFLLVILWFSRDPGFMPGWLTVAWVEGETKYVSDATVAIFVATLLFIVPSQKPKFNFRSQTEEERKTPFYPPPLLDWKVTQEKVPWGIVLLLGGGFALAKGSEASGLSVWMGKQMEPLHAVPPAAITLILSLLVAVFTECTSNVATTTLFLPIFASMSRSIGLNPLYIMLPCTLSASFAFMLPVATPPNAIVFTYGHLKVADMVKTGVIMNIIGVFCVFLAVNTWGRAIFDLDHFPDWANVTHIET", "assay": "Inhibition of human SLC13A5 transfected in HEK293T cells incubated for 30 mins by D4-citrate uptake assay", "assay_type": "cell-based"}, "[2]": {"assay": "Cmax in Sprague-Dawley rat at 50 mg/kg, po measured after 24 hrs by LC-MS/MS analysis", "assay_type": "ADME, organism-based", "conditions": "in vivo; call rule not given here"}, "[3]": {"assay": "AUC (0 to infinity) in Sprague-Dawley rat at 50 mg/kg, po measured after 24 hrs by LC-MS/MS analysis", "assay_type": "ADME, organism-based", "conditions": "in vivo"}, "[4]": {"assay": "Half-life in Sprague-Dawley rat at 50 mg/kg, po measured after 24 hrs by LC-MS/MS analysis", "assay_type": "ADME, organism-based", "conditions": "in vivo"}, "[5]": {"assay": "Volume of distribution in Sprague-Dawley rat at 50 mg/kg, po measured after 24 hrs by LC-MS/MS analysis", "assay_type": "ADME, organism-based", "conditions": "in vivo"}, "[6]": {"assay": "Oral bioavailability in Sprague-Dawley rat at 50 mg/kg measured after 24 hrs by LC-MS/MS analysis", "assay_type": "ADME, organism-based", "conditions": "in vivo"}, "[7]": {"assay": "AUC (0 to infinity) in Sprague-Dawley rat at 5 mg/kg, iv measured after 24 hrs by LC-MS/MS analysis", "assay_type": "ADME, organism-based", "conditions": "in vivo"}, "[8]": {"assay": "Half-life in Sprague-Dawley rat at 5 mg/kg, iv measured after 24 hrs by LC-MS/MS analysis", "assay_type": "ADME, organism-based", "conditions": "in vivo"}, "[9]": {"assay": "Volume of distribution in Sprague-Dawley rat at 5 mg/kg, iv measured after 24 hrs by LC-MS/MS analysis", "assay_type": "ADME, organism-based", "conditions": "in vivo"}, "[10]": {"assay": "Clearance in Sprague-Dawley rat at 5 mg/kg, iv measured after 24 hrs by LC-MS/MS analysis", "assay_type": "ADME, organism-based", "conditions": "in vivo"}, "[11]": {"assay": "Clearance in Sprague-Dawley rat at 50 mg/kg, po measured after 24 hrs by LC-MS/MS analysis", "assay_type": "ADME, organism-based", "conditions": "in vivo"}, "[12]": {"assay": "Metabolic stability in human plasma assessed as compound remaining measured after 2 hrs by LC-MS/MS analysis", "assay_type": "ADME, cell-free", "conditions": "read-out: Stability"}, "[13]": {"assay": "Metabolic stability in rat liver microsome assessed as compound remaining measured after 2 hrs in presence of NADPH by LC-MS/MS analysis", "assay_type": "ADME", "conditions": "liver microsomes, read-out: Stability"}, "[14]": {"assay": "Metabolic stability in human liver microsome assessed as compound remaining measured after 2 hrs in presence of NADPH by LC-MS/MS analysis", "assay_type": "ADME", "conditions": "microsomes"}, "[15]": {"assay": "Drug accumulation in Sprague-Dawley rat liver at 5 mg/kg, po measured after 2 hrs by LC-MS/MS analysis", "assay_type": "ADME, organism-based", "conditions": "in vivo"}, "[16]": {"assay": "Drug accumulation in Sprague-Dawley rat prostate gland at 5 mg/kg, po measured after 2 hrs by LC-MS/MS analysis", "assay_type": "ADME, organism-based", "conditions": "in vivo"}, "[17]": {"assay": "Drug accumulation in Sprague-Dawley rat brain at 5 mg/kg, po measured after 2 hrs by LC-MS/MS analysis", "assay_type": "ADME, organism-based", "conditions": "in vivo"}, "HepG2": {"test_system": "HepG2", "assay": "Cytotoxicity against human HepG2 cells", "assay_type": "toxicity, cell-based"}, "Huh-7": {"test_system": "Huh-7", "assay": "Cytotoxicity against human Huh-7 cells", "assay_type": "toxicity, cell-based"}, "HEK-293T": {"test_system": "HEK-293T", "assay": "Cytotoxicity against HEK293T cells", "assay_type": "toxicity, cell-based", "conditions": "human"}, "[18]": {"assay": "Tmax in Sprague-Dawley rat at 50 mg/kg, po measured after 24 hrs by LC-MS/MS analysis", "assay_type": "ADME, organism-based", "conditions": "in vivo"}, "[19]": {"assay": "Toxicity in C57BL/6J mouse assessed as animal death at 100 mg/kg", "assay_type": "organism-based", "conditions": "in vivo"}, "[20]": {"assay": "Acute toxicity in C57BL/6J mouse at 50 to 300 mg/kg measured after 7 days", "assay_type": "organism-based", "conditions": "in vivo, 168 h, dose 50-300 mg/kg, time 7 day"}}, "data": [{"compound": "CCOc1cccc(-c2ccc(CCC(O)(CC(=O)O)C(=O)O)cc2)c1", "note": "(stereo unspecified)", "values": [{"measurement": "IC50", "setting": "[1]", "result": 310, "unit": "nM"}]}, {"compound": "O=C(O)CC(O)(CCc1ccc(-c2ccccc2C(F)(F)F)cc1)C(=O)O", "note": "(stereo unspecified)", "values": [{"measurement": "IC50", "setting": "[1]", "result": 210, "unit": "nM"}]}, {"compound": "O=C(O)CC(O)(CCc1ccc(-c2ccc3c(c2)OCO3)cc1)C(=O)O", "note": "(stereo unspecified)", "values": [{"measurement": "IC50", "setting": "[1]", "result": 110, "unit": "nM"}]}, {"compound": "CCCOc1cccc(-c2ccc(CCC(O)(CC(=O)O)C(=O)O)cc2)c1", "note": "(stereo unspecified)", "values": [{"measurement": "IC50", "setting": "[1]", "result": 270, "unit": "nM"}]}, {"compound": "COc1cccc(-c2ccc(CCC(O)(CC(=O)O)C(=O)O)cc2)c1", "note": "(stereo unspecified)", "values": [{"measurement": "IC50", "setting": "[1]", "result": 340, "unit": "nM"}]}, {"compound": "CC(C)(C)c1ccc(CC[C@@](O)(CC(=O)O)C(=O)O)cc1", "values": [{"measurement": "Cmax", "setting": "[2]", "result": 1.36, "unit": "µg/mL"}, {"measurement": "AUC(0-inf)", "setting": "[3]", "result": 10600, "unit": "ng·h/mL"}, {"measurement": "half-life", "setting": "[4]", "result": 12.4, "unit": "h"}, {"measurement": "Vd", "setting": "[5]", "result": 83.96, "unit": "L/kg"}, {"measurement": "bioavailability", "setting": "[6]", "result": 1.83, "unit": "%"}, {"measurement": "AUC(0-inf)", "setting": "[7]", "result": 40400, "unit": "ng·h/mL"}, {"measurement": "half-life", "setting": "[8]", "result": 2.61, "unit": "h"}, {"measurement": "Vd", "setting": "[9]", "result": 0.69, "unit": "L/kg"}, {"measurement": "clearance", "setting": "[10]", "result": 2, "unit": "mL/min/kg"}, {"measurement": "CL/F", "setting": "[11]", "result": 80.8, "unit": "mL/min/kg"}]}, {"compound": "O=C(O)CC(O)(CCc1ccc(-c2cccc(C(F)(F)F)c2)cc1)C(=O)O", "note": "(stereo unspecified)", "values": [{"measurement": "IC50", "setting": "[1]", "result": 150, "unit": "nM"}]}, {"compound": "O=C(O)CC(O)(CCc1ccc(N2CCOCC2)cc1)C(=O)O", "note": "(stereo unspecified)", "values": [{"measurement": "IC50", "setting": "[1]", "result": 860, "unit": "nM"}]}, {"compound": "CCn1nccc1-c1ccc(CCC(O)(CC(=O)O)C(=O)O)cc1", "note": "(stereo unspecified)", "values": [{"measurement": "IC50", "setting": "[1]", "result": 130, "unit": "nM"}, {"measurement": "remaining at 2 h", "setting": "[12]", "result": "> 60", "unit": "%"}, {"measurement": "remaining at 2 h", "setting": "[13]", "result": "> 60", "unit": "%"}]}, {"compound": "COc1ccccc1-c1ccc(CCC(O)(CC(=O)O)C(=O)O)cc1", "note": "(stereo unspecified)", "values": [{"measurement": "IC50", "setting": "[1]", "result": 290, "unit": "nM"}]}, {"compound": "O=C(O)CC(O)(CCc1ccc(-c2cccc(OC(F)(F)F)c2)cc1)C(=O)O", "note": "(stereo unspecified)", "values": [{"measurement": "IC50", "setting": "[1]", "result": 190, "unit": "nM"}]}, {"compound": "O=C(O)CC(O)(CCc1ccc(-c2ccccc2)cc1)C(=O)O", "note": "(stereo unspecified)", "values": [{"measurement": "IC50", "setting": "[1]", "result": 67, "unit": "nM"}, {"measurement": "remaining at 2 h", "setting": "[12]", "result": "> 60", "unit": "%"}, {"measurement": "remaining at 2 h", "setting": "[13]", "result": "> 60", "unit": "%"}, {"measurement": "Stability", "setting": "[14]", "result": "Stable"}, {"measurement": "Drug uptake", "setting": "[15]", "result": "Active"}, {"measurement": "Drug uptake", "setting": "[16]", "result": "Active"}, {"measurement": "Drug uptake", "setting": "[17]", "result": "Not Active"}, {"measurement": "Activity", "setting": "HepG2", "result": "Non-Toxic"}, {"measurement": "Activity", "setting": "Huh-7", "result": "Non-Toxic"}, {"measurement": "Activity", "setting": "HEK-293T", "result": "Non-Toxic"}, {"measurement": "Cmax", "setting": "[2]", "result": 288, "unit": "µg/mL"}, {"measurement": "AUC(0-inf)", "setting": "[3]", "result": 705000, "unit": "ng·h/mL"}, {"measurement": "half-life", "setting": "[4]", "result": 1.09, "unit": "h"}, {"measurement": "Vd", "setting": "[5]", "result": 0.11, "unit": "L/kg"}, {"measurement": "bioavailability", "setting": "[6]", "result": 48.7, "unit": "%"}, {"measurement": "AUC(0-inf)", "setting": "[7]", "result": 145000, "unit": "ng·h/mL"}, {"measurement": "half-life", "setting": "[8]", "result": 0.69, "unit": "h"}, {"measurement": "Vd", "setting": "[9]", "result": 0.03, "unit": "L/kg"}, {"measurement": "clearance", "setting": "[10]", "result": 0.667, "unit": "mL/min/kg"}, {"measurement": "CL/F", "setting": "[11]", "result": 1.17, "unit": "mL/min/kg"}, {"measurement": "Tmax", "setting": "[18]", "result": 0.76, "unit": "h"}, {"measurement": "Activity", "setting": "[19]", "result": "Non-Toxic"}, {"measurement": "Activity", "setting": "[20]", "result": "Non-Toxic"}]}, {"compound": "Cn1nccc1-c1ccc(CCC(O)(CC(=O)O)C(=O)O)cc1", "note": "(stereo unspecified)", "values": [{"measurement": "IC50", "setting": "[1]", "result": 1970, "unit": "nM"}]}, {"compound": "O=C(O)CC(O)(CCc1ccc(-c2cccc3c2NCCC3)cc1)C(=O)O", "note": "(stereo unspecified)", "values": [{"measurement": "IC50", "setting": "[1]", "result": 350, "unit": "nM"}]}, {"compound": "O=C(O)CC(O)(CCc1ccc2ccccc2c1)C(=O)O", "note": "(stereo unspecified)", "values": [{"measurement": "IC50", "setting": "[1]", "result": 73, "unit": "nM"}, {"measurement": "remaining at 2 h", "setting": "[12]", "result": "> 60", "unit": "%"}, {"measurement": "remaining at 2 h", "setting": "[13]", "result": "> 60", "unit": "%"}]}, {"compound": "CC(C)Oc1cccc(-c2ccc(CCC(O)(CC(=O)O)C(=O)O)cc2)c1", "note": "(stereo unspecified)", "values": [{"measurement": "IC50", "setting": "[1]", "result": 440, "unit": "nM"}]}, {"compound": "COc1cc(-c2ccc(CCC(O)(CC(=O)O)C(=O)O)cc2)ccn1", "note": "(stereo unspecified)", "values": [{"measurement": "IC50", "setting": "[1]", "result": 860, "unit": "nM"}]}, {"compound": "O=C(O)CC(O)(CCc1nc2ccccc2s1)C(=O)O", "note": "(stereo unspecified)", "values": [{"measurement": "IC50", "setting": "[1]", "result": 160, "unit": "nM"}, {"measurement": "remaining at 2 h", "setting": "[12]", "result": "> 60", "unit": "%"}, {"measurement": "remaining at 2 h", "setting": "[13]", "result": "> 60", "unit": "%"}]}, {"compound": "O=C(O)CC(O)(CCc1ccc(-c2ccn[nH]2)cc1)C(=O)O", "note": "(stereo unspecified)", "values": [{"measurement": "IC50", "setting": "[1]", "result": 1180, "unit": "nM"}]}]}
